Measurements published in publication PMC11928319 (Nature Plants, 2025).
Where a SMILES comes first, the peptide text is derived from it. [ ]: non-standard residue; d: D form. Hyp = O=C(O)[C@@H]1C[C@@H](O)CN1

Experiments:
[1] = system: filter-sterile supernatant of Rhodanobacter R179 (secreted peptidase(s)); experiment: Peptide quantification by mass spectrometry after incubation in cell-free supernatant of Rhodanobacter R179; format: in vitro ADME; conditions: for peptide detected by mass spectrometry after incubation in supernatant of the R179 dssAB mutant / peptide detected by mass spectrometry after incubation in supernatant of wild-type R179: 1 µM peptide, 1 h, LC-MS MS1 peak area; for peptide detected by mass spectrometry after incubation in supernatant of the R179 dssAB mutant: filter-sterile supernatant of dssAB mutant cultivated in XVM2 (OD600 = 0.4), n = 3; for peptide detected by mass spectrometry after incubation in supernatant of wild-type R179: filter-sterile supernatant of wild-type R179 cultivated in XVM2 minimal medium (OD600 = 0.4), light chamber, n = 3 culture supernatants
Procedure: Elicitors were also supplemented into the medium prior to solidification at a final concentration of 1 µM. The flg22 ([…]) and AtPep1 ([…]) peptides were synthesized by EZbiolab. elf18^R179 (Ac-[…]) and elf18 (Ac-[…]) were synthesized by GenScript and EZbiolab, respectively. For inoculation with the bacterial supernatant, bacteria were cultivated overnight in XVM2 minimal medium (20 mM NaCl, 10 mM (NH4)2SO4, 5 mM MgSO4, 1 mM CaCl2, 0.16 mM KH2PO4, 0.32 mM K2HPO4, 0.01 mM FeSO4, 10 mM fructose, 10 mM sucrose, 0.03% Casamino acids, pH 6.7)[76] to a final concentration of OD600 = 0.4. Bacteria were pelleted by centrifugation (11,600 g, 2 min), and the supernatant was sterile-filtered using filter units with MF-Millipore membrane (0.22 µm; Millex). The supernatant was incubated in boiling water for 30 min for heat treatment. Then, 25 ml of 1× MS with 20 g l^−1 Bacto Agar was mixed with 25 ml of supernatant prior to medium solidification and poured into square petri dishes. Sterilized seeds were placed on solidified agar in square petri dishes and vertically incubated for 14 days.
Bacterial supernatants were prepared as described in ‘Agar-based cultivation of axenic plants and co-cultivation with bacteria, bacterial supernatants and elicitors’. Here, additionally, the peptides dRGF1 (DYSNPGHHP-Hyp-RHN) and PSY1 (D-Y(SO3H)-[…]-Hyp-Hyp-S) synthesized by Scilight Peptide were incubated for 1 h with 1 µM of peptides in a plant cultivation light chamber (day-light condition; see ‘Plant cultivation conditions’), and the samples were frozen at −20 °C until further processing. For the investigation of AtPep1 degradation, the AtPep1 peptide was first modified by acetylation (six to seven times). To this end, 100-µl aliquots of peptides were treated with 10 µl of NHS acetate solution (1 M NHS acetate in 50% ACN/PBS) and incubated for 30 min with shaking. The reaction was quenched by the addition of 100 µl of 100 mM Tris-HCl (pH 8.5) and incubated for 10 min. For comparison of the non-acetylated peptides with the above-described modified AtPep1 peptides, aliquots of the non-acetylated peptides were processed as described above, but without the modifying NHS reaction. To this end, 100-µl aliquots of the sample were mixed with 100 µl of PBS buffer (137 mM NaCl, 2.7 mM KCl, 10 mM Na2HPO4, 1.8 mM KH2PO4; pH 7.4). The samples were then further diluted with 100 µl of 100 mM Tris-HCl (pH 8.5) and incubated for 10 min. All samples were acidified with 5 µl of TFA and desalted using StageTips with C18 Empore disk membranes (3M)[109]. The samples were dried in a vacuum evaporator and dissolved in 10 µl of 2% ACN (0.1% TFA for analysis).
The samples were analysed using an EASY-nLC 1200 (Thermo Fisher) coupled to a QExactive Plus mass spectrometer (Thermo Fisher). Peptides were separated on 16-cm frit-less silica emitters (New Objective, 75 µm inner diameter), packed in-house with reversed-phase ReproSil-Pur C18 AQ 1.9 µm resin (Dr. Maisch). Peptides were loaded on the column and eluted for 50 min using a segmented linear gradient of 5% to 95% solvent B (0 min, 5% B; 0–5 min, 15% B; 5–35 min, 50% B; 35–45 min, 95% B; 45–50 min, 95% B) (solvent A: 0% ACN, 0.1% FA; solvent B: 80% ACN, 0.1% FA) at a flow rate of 300 nl min^−1. Mass spectra were acquired in data-dependent acquisition mode with a TOP10 method. Mass spectrometry spectra were acquired in the Orbitrap analyser with a mass range of 300–1,500 m/z at a resolution of 70,000 full width at half maximum (FWHM) and a target value of 3 × 10^6 ions. Precursors were selected with an isolation window of 1.3 m/z. Higher-energy collision dissociation (HCD) fragmentation was performed at a normalized collision energy of 25. Tandem mass spectrometry (MS/MS) spectra were acquired with a target value of 5 × 10^5 ions at a resolution of 17,500 FWHM, a maximum injection time of 85 ms and a fixed first mass of 100 m/z. […]

[2] = supernatant of the R179 dssAB mutant grown in XVM2 minimal medium supplemented with 10% TSB; conditions: Rhodanobacter R179 dssAB mutant, plant cultivation light chamber (day-light condition; 21 °C), up to 1 h
[3] = supernatant of wild-type R179 grown in XVM2 medium supplemented with 10% carbon-rich medium (tryptic soy broth); conditions: Rhodanobacter R179, plant cultivation light chamber (day-light condition; 21 °C), up to 1 h
[4] = filter-sterile supernatant of wild-type Rhodanobacter R179 cultivated in XVM2 medium (bacterial culture: OD600 = 0.4); conditions: Rhodanobacter R179, plant cultivation light chamber (day-light condition; 21 °C), up to 1 h
[5] = filter-sterile supernatant of the Rhodanobacter R179 dssAB mutant cultivated in XVM2 medium (bacterial culture: OD600 = 0.4); conditions: plant cultivation light chamber (day-light condition; 21 °C), up to 1 h
[6] = R179 dssAB mutant supernatant, XVM2 medium, incubation 1h, MS1 precursor area, replicate 1
[7] = R179 dssAB mutant supernatant, XVM2 medium, incubation 1h, MS1 precursor area, replicate 2
[8] = R179 dssAB mutant supernatant, XVM2 medium, incubation 1h, MS1 precursor area, replicate 3
[9] = R179 dssAB mutant supernatant, XVM2 medium, incubation 1h, peptide relative to axenic, replicate 1
[10] = R179 dssAB mutant supernatant, XVM2 medium, incubation 1h, peptide relative to axenic, replicate 2
[11] = R179 dssAB mutant supernatant, XVM2 medium, incubation 1h, peptide relative to axenic, replicate 3
[12] = R179 wt supernatant, XVM2 medium, incubation 1h, MS1 precursor area, replicate 1
[13] = R179 wt supernatant, XVM2 medium, incubation 1h, MS1 precursor area, replicate 2
[14] = R179 wt supernatant, XVM2 medium, incubation 1h, MS1 precursor area, replicate 3
[15] = R179 wt supernatant, XVM2 medium, incubation 1h, peptide relative to axenic, replicate 1
[16] = R179 wt supernatant, XVM2 medium, incubation 1h, peptide relative to axenic, replicate 2
[17] = R179 wt supernatant, XVM2 medium, incubation 1h, peptide relative to axenic, replicate 3
[18] = axenic XVM2 medium control, incubation 1h, MS1 precursor area, replicate 1
[19] = axenic XVM2 medium control, incubation 1h, MS1 precursor area, replicate 2
[20] = axenic XVM2 medium control, incubation 1h, MS1 precursor area, replicate 3
[21] = axenic XVM2 medium control, incubation 1h, peptide relative to axenic, replicate 1
[22] = axenic XVM2 medium control, incubation 1h, peptide relative to axenic, replicate 2
[23] = axenic XVM2 medium control, incubation 1h, peptide relative to axenic, replicate 3

| Molecule | peptide detected by mass spectrometry after incubation in supernatant of the R179 dssAB mutant [1] | peptide detected by mass spectrometry after incubation in supernatant of wild-type R179 [1] | Log10(total_area_MS1) [1, 6] | Log10(total_area_MS1) [1, 7] | Log10(total_area_MS1) [1, 8] | percent_rel_axenic [1, 9] | percent_rel_axenic [1, 10] | percent_rel_axenic [1, 11] | Log10(total_area_MS1) [1, 12] | Log10(total_area_MS1) [1, 13] | Log10(total_area_MS1) [1, 14] | percent_rel_axenic [1, 15] | percent_rel_axenic [1, 16] | percent_rel_axenic [1, 17] | Log10(total_area_MS1) [1, 18] | Log10(total_area_MS1) [1, 19] | Log10(total_area_MS1) [1, 20] | percent_rel_axenic [1, 21] | percent_rel_axenic [1, 22] | percent_rel_axenic [1, 23] | further results |
| --- | --- | --- | --- | --- | --- | --- | --- | --- | --- | --- | --- | --- | --- | --- | --- | --- | --- | --- | --- | --- | --- |
| N=C(N)NCCC[C@H](NC(=O)[C@@H]1C[C@@H](O)CN1C(=O)[C@@H]1CCCN1C(=O)[C@H](Cc1c[nH]cn1)NC(=O)[C@H](Cc1c[nH]cn1)NC(=O)CNC(=O)[C@@H]1CCCN1C(=O)[C@H](CC(N)=O)NC(=O)[C@H](CO)NC(=O)[C@H](Cc1ccc(O)cc1)NC(=O)[C@@H](N)CC(=O)O)C(=O)N[C@@H](Cc1c[nH]cn1)C(=O)N[C@@H](CC(N)=O)C(=O)O [dRGF1] (H-DYSNPGHHP[Hyp]RHN-OH) | still detected | still detected | 8.738 | 8.7982 | 8.898 | 299.876% | 344.476% | 433.442% | 8.685 | 8.632 | 8.682 | 265.464% | 235.074% | 263.706% | 8.337 | 8.259 | 8.171 | 119.158% | 99.6152% | 81.2268% | Log10(total_area_MS1) ([1]; axenic XVM2_TSB, 1h, 1 µM, LC-MS [M+2H], replicate 2): 8.595; Log10(total_area_MS1) ([1]; axenic XVM2_TSB, 1h, 1 µM, LC-MS [M+2H], replicate 3): 8.5; percent_rel_axenic ([1]; axenic XVM2_TSB, 1h, 1 µM, LC-MS, relative to axenic, replicate 2): 103.573%; percent_rel_axenic ([1]; axenic XVM2_TSB, 1h, 1 µM, LC-MS, relative to axenic, replicate 3): 83.3448%; Log10(total_area_MS1) ([1]; supernatant of wt R179 grown in XVM2_TSB, 1h, 1 µM, LC-MS [M+2H], replicate 1): 8.931; Log10(total_area_MS1) ([1]; supernatant of wt R179 grown in XVM2_TSB, 1h, 1 µM, LC-MS [M+2H], replicate 2): 9.001; percent_rel_axenic ([1]; supernatant of wt R179 grown in XVM2_TSB, 1h, 1 µM, LC-MS, relative to axenic, replicate 1): 225.002%; percent_rel_axenic ([1]; supernatant of wt R179 grown in XVM2_TSB, 1h, 1 µM, LC-MS, relative to axenic, replicate 2): 263.948% |
| D-Y(SO3H)-GDPSANPKHDPGV-Hyp-Hyp-S [PSY1, root-growth-promoting sulfated PSY1 peptide] | still detected | still detected | 9.656 | 9.68 | 9.49 | 16.8242% | 17.7896% | 11.4643% | 9.465 | 9.6971 | 9.627 | 10.8248% | 18.4872% | 15.7291% | 10.5778 | 10.3906 | 10.2645 | 140.453% | 91.2772% | 68.27% |  |
| DYSNPGHHP-Hyp-RHN |  |  |  |  |  |  |  |  |  |  |  |  |  |  |  |  |  |  |  |  | not cleaved [2]: peak area above 100% relative to mock (Extended Data Fig. 7d); not cleaved [3]: peak area above 100% relative to mock (Extended Data Fig. 7d); not cleaved [4]: still detected after 1 h; peak area above 100% relative to mock (Fig. 4a); not cleaved [5]: still detected after 1 h; peak area above 100% relative to mock (Fig. 4a) |
